Assay results reported in PubChem BioAssay AID330 (DTP/NCI, 2004).
Where “and” joins values, the source holds several entries; their conditions need not be identical. Equal values may be shown once. Inconclusive results and toxic doses are left out.

System: P388 leukemia ip, CD2F1 mice, survival T/C
Assay: NCI In Vivo Anticancer Drug Screen. Data for tumor model P388 Leukemia (intraperitoneal) in CD2F1 (CDF1) mice
Conditions: endpoint: median survival time, higher = longer survival
In short: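 Mice carrying the transplanted tumor received test compound or vehicle. Survival was recorded in each group, and the value is the treated-group measurement divided by that of the vehicle-treated control group.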

[1] = dose: 60.0 mg/kg/injection, schedule: Q01DX005 (ip), vehicle: saline with Tween-80
[2] = dose: 120.0 mg/kg/injection, schedule: Q01DX005 (ip), vehicle: saline with Tween-80
[3] = dose: 240.0 mg/kg/injection, schedule: Q01DX005 (ip), vehicle: saline with Tween-80
[4] = dose: 50.0 mg/kg/injection, schedule: Q04DX003 (ip), vehicle: saline with Tween-80
[5] = dose: 100.0 mg/kg/injection, schedule: Q04DX003 (ip), vehicle: saline with Tween-80
[6] = dose: 200.0 mg/kg/injection, schedule: Q04DX003 (ip), vehicle: saline with Tween-80
[7] = dose: 50.0 mg/kg/injection, schedule: Q01DX009 (ip), vehicle: saline
[8] = dose: 100.0 mg/kg/injection, schedule: Q01DX009 (ip), vehicle: saline
[9] = dose: 50.0 mg/kg/injection, schedule: Q01DX005 (ip), vehicle: saline with Tween-80
[10] = dose: 100.0 mg/kg/injection, schedule: Q01DX005 (ip), vehicle: saline with Tween-80
[11] = dose: 200.0 mg/kg/injection, schedule: Q01DX005 (ip), vehicle: saline with Tween-80

With `CNC(=O)Nc1nc2ccccc2[nH]1` the T/C (dose: 20.0 mg/kg/injection, schedule: Q04DX003 (ip), vehicle: other) was 100 % of control, the T/C (dose: 20.0 mg/kg/injection, schedule: Q04DX003 (oral), vehicle: other) was 100 % of control and the T/C (dose: 40.0 mg/kg/injection, schedule: Q04DX003 (ip), vehicle: other) was 95 % of control. The T/C (dose: 40.0 mg/kg/injection, schedule: Q04DX003 (oral), vehicle: other) was 100 % of control, the T/C (dose: 50.0 mg/kg/injection, schedule: Q04DX003 (ip), vehicle: Klucel (hydroxypropylcellulose) (HPC)) was 100 % of control (2×) and 109 % of control and the T/C (dose: 80.0 mg/kg/injection, schedule: Q04DX003 (ip), vehicle: other) was 102 % of control. The T/C (dose: 80.0 mg/kg/injection, schedule: Q04DX003 (oral), vehicle: other) was 100 % of control, the T/C (dose: 100.0 mg/kg/injection, schedule: Q04DX003 (ip), vehicle: Klucel (hydroxypropylcellulose) (HPC)) was 105 % of control and 111 % of control and 116 % of control and the T/C (dose: 160.0 mg/kg/injection, schedule: Q04DX003 (ip), vehicle: other) was 111 % of control. For the same molecule, the T/C (dose: 160.0 mg/kg/injection, schedule: Q04DX003 (oral), vehicle: other) was 104 % of control, the T/C (dose: 200.0 mg/kg/injection, schedule: Q04DX003 (ip), vehicle: Klucel (hydroxypropylcellulose) (HPC)) was 112 % of control and 118 % of control and the T/C (dose: 320.0 mg/kg/injection, schedule: Q04DX003 (ip), vehicle: other) was 119 % of control. For the same molecule, the T/C (dose: 320.0 mg/kg/injection, schedule: Q04DX003 (oral), vehicle: other) was 102 % of control, the T/C (dose: 400.0 mg/kg/injection, schedule: Q04DX003 (ip), vehicle: Klucel (hydroxypropylcellulose) (HPC)) was 109 % of control and 121 % of control and the T/C (dose: 640.0 mg/kg/injection, schedule: Q04DX003 (ip), vehicle: other) was 154 % of control. The T/C (dose: 640.0 mg/kg/injection, schedule: Q04DX003 (oral), vehicle: other) was 109 % of control.
For `CCCC(=O)c1cc(-c2cc(C(=O)CCC)nc(N)n2)nc(N)n1`, the T/C [1] was 99 % of control and the T/C [2] was 107 % of control.
`c1cncc(C(Nc2cccc3cccnc23)Nc2cccc3cccnc23)c1` was tested, and the T/C [1] was 94 % of control, the T/C [2] was 91 % of control and the T/C [3] was 90 % of control.
In the case of `c1ccc(-c2nnc(-c3ccccc3)nn2)cc1`, the T/C [4] is reported as 100 % of control, the T/C [5] is reported as 100 % of control and the T/C [6] is reported as 97 % of control. For the same molecule, the T/C (dose: 400.0 mg/kg/injection, schedule: Q04DX003 (ip), vehicle: saline with Tween-80) was 93 % of control.
For `CC1=CC2=C(C(N)=O)C(=O)OC2(C)C(c2ccccc2)C1` (stereo not drawn), the T/C [1] was 101 % of control, the T/C [2] was 101 % of control and the T/C [3] was 100 % of control.
With `CC1=C[P+](c2ccccc2)(c2ccccc2)c2ccccc2O1` the T/C (dose: 1.56 mg/kg/injection, schedule: Q01DX005 (ip), vehicle: Klucel (hydroxypropylcellulose) (HPC)) was 96 % of control, the T/C (dose: 3.12 mg/kg/injection, schedule: Q01DX005 (ip), vehicle: Klucel (hydroxypropylcellulose) (HPC)) was 109 % of control and the T/C (dose: 6.25 mg/kg/injection, schedule: Q01DX005 (ip), vehicle: Klucel (hydroxypropylcellulose) (HPC)) was 110 % of control.
For `Cc1cc(Cl)ccc1NC(=O)COc1ccc(Cl)cc1Cl`, the T/C [4] was 100 % of control, the T/C [5] was 95 % of control and the T/C [6] was 90 % of control.
With `CN1[C@@H](CC(=O)c2ccccc2)CCC[C@H]1CC(=O)c1ccccc1` the T/C (dose: 25.0 mg/kg/injection, schedule: Q01DX009 (ip), vehicle: saline) was 95 % of control, the T/C [7] was 103 % of control and the T/C [8] was 102 % of control.
`CC1(C)N=C(N)N=C(N)N1c1ccc(CNC(=O)Nc2ccc(S(=O)(=O)F)cc2)c(Cl)c1` was tested, and the T/C (dose: 132.0 mg/kg/injection, schedule: Q04DX003 (ip), vehicle: saline with Tween-80) was 154 % of control and the T/C [6] was 154 % of control.
`CCN(CC)C(=O)c1nc(-c2cccc3ccccc23)no1` was tested, and the T/C (dose: 50.0 mg/kg/injection, schedule: Q01DX009 (ip), vehicle: Klucel (hydroxypropylcellulose) (HPC)) was 100 % of control, the T/C (dose: 100.0 mg/kg/injection, schedule: Q01DX009 (ip), vehicle: Klucel (hydroxypropylcellulose) (HPC)) was 97 % of control and the T/C (dose: 200.0 mg/kg/injection, schedule: Q01DX009 (ip), vehicle: Klucel (hydroxypropylcellulose) (HPC)) was 98 % of control.
With `Cc1cc2c(cc1Cl)ncn2C` the T/C [7] was 96 % of control, the T/C [8] was 112 % of control and the T/C (dose: 200.0 mg/kg/injection, schedule: Q01DX009 (ip), vehicle: saline) was 118 % of control.
With `O=C1C=CC(=O)N1C(=O)NC(NC(=O)N1C(=O)C=CC1=O)c1cccc2ccccc12` the T/C [9] was 100 % of control, the T/C [10] was 99 % of control and the T/C [11] was 90 % of control.
`O=C1c2ccccc2C(=O)c2c(O)ccc3cccc1c23` was tested, and the T/C (dose: 50.0 mg/kg/injection, schedule: Q01DX005 (ip), vehicle: Klucel + Tween-80) was 92 % of control, the T/C (dose: 100.0 mg/kg/injection, schedule: Q01DX005 (ip), vehicle: Klucel + Tween-80) was 92 % of control and the T/C (dose: 200.0 mg/kg/injection, schedule: Q01DX005 (ip), vehicle: Klucel + Tween-80) was 92 % of control.
In the case of `CC(=O)Oc1cc2c3c(c1)-c1c(ccc(OC(C)=O)c1OC(C)=O)CC3NCC2` (stereo not drawn), the T/C (dose: 3.13 mg/kg/injection, schedule: Q04DX003 (ip), vehicle: DMSO) is reported as 101 % of control, the T/C (dose: 6.25 mg/kg/injection, schedule: Q04DX003 (ip), vehicle: DMSO) is reported as 101 % of control and the T/C (dose: 12.5 mg/kg/injection, schedule: Q04DX003 (ip), vehicle: DMSO) is reported as 103 % of control. The T/C (dose: 25.0 mg/kg/injection, schedule: Q04DX003 (ip), vehicle: DMSO) was 108 % of control, the T/C (dose: 50.0 mg/kg/injection, schedule: Q04DX003 (ip), vehicle: DMSO) was 108 % of control and the T/C (dose: 100.0 mg/kg/injection, schedule: Q04DX003 (ip), vehicle: DMSO) was 99 % of control.
With `CCOP1(OCC)(OCC)OC(C(F)(F)F)(C(F)(F)F)C(C(F)(F)F)(C(F)(F)F)O1` the T/C (dose: 6.25 mg/kg/injection, schedule: Q01DX009 (ip), vehicle: saline with Tween-80) was 100 % of control and the T/C (dose: 12.5 mg/kg/injection, schedule: Q01DX009 (ip), vehicle: saline with Tween-80) was 105 % of control.
In the case of `COC(=O)C(=O)C(C(=O)C(c1ccccc1)c1ccccc1)c1nc2n(c1O)/C(=N/C(=O)Nc1ccc(Cl)cc1)N=N2` (stereo not drawn), the T/C [1] is reported as 100 % of control, the T/C [2] is reported as 98 % of control and the T/C [3] is reported as 99 % of control.
With `Cc1ccc2c(c1)N(CCSc1ncn[nH]1)C(C)(C)CC2C` (stereo not drawn) the T/C (dose: 100.0 mg/kg/injection, schedule: Q04DX002 (ip), vehicle: Klucel (hydroxypropylcellulose) (HPC)) was 97 % of control, the T/C (dose: 200.0 mg/kg/injection, schedule: Q04DX002 (ip), vehicle: Klucel (hydroxypropylcellulose) (HPC)) was 92 % of control and the T/C (dose: 400.0 mg/kg/injection, schedule: Q04DX002 (ip), vehicle: Klucel (hydroxypropylcellulose) (HPC)) was 97 % of control.
For `O=C1OCC[C@@H]1O`, the T/C (dose: 60.0 mg/kg/injection, schedule: Q01DX005 (ip), vehicle: saline) was 101 % of control, the T/C (dose: 120.0 mg/kg/injection, schedule: Q01DX005 (ip), vehicle: saline) was 101 % of control and the T/C (dose: 240.0 mg/kg/injection, schedule: Q01DX005 (ip), vehicle: saline) was 97 % of control.
`[Cl][Rh][Cl].[NH-]c1nc2c(ccc3ccccc32)s1.[NH-]c1nc2c(ccc3ccccc32)s1.[NH-]c1nc2c(ccc3ccccc32)s1.[NH-]c1nc2c(ccc3ccccc32)s1` was tested, and the T/C (dose: 100.0 mg/kg/injection, schedule: Q04DX003 (ip), vehicle: saline) was 108 % of control, the T/C (dose: 200.0 mg/kg/injection, schedule: Q04DX003 (ip), vehicle: saline) was 109 % of control and the T/C (dose: 400.0 mg/kg/injection, schedule: Q04DX003 (ip), vehicle: saline) was 105 % of control.
With `Nc1nc2c(cnn2C2CCCO2)c(=O)[nH]1` (stereo not drawn) the T/C (dose: 100.0 mg/kg/injection, schedule: Q01DX001 (ip), vehicle: saline with Tween-80) was 100 % of control, the T/C (dose: 200.0 mg/kg/injection, schedule: Q01DX001 (ip), vehicle: saline with Tween-80) was 106 % of control and the T/C (dose: 400.0 mg/kg/injection, schedule: Q01DX001 (ip), vehicle: saline with Tween-80) was 96 % of control.
In the case of `CCN(CC)CCCC(C)Nc1c2ccc(Cl)cc2nc2cc(N=Nc3cccc4ccccc34)c(OC)cc12` (stereo not drawn), the T/C (dose: 25.0 mg/kg/injection, schedule: Q04DX003 (ip), vehicle: saline with Tween-80) is reported as 92 % of control, the T/C [4] is reported as 92 % of control and the T/C [5] is reported as 118 % of control.
`O=C1c2ccccc2-c2c1c1ccccc1c(=O)n2-c1cccnc1` was tested, and the T/C [9] was 111 % of control, the T/C [10] was 101 % of control and the T/C [11] was 97 % of control.
In the case of `c1cc2nc(c1)CSCc1cc3c(cc1CSCc1cccc(n1)CSC3)CSC2`, the T/C (dose: 50.0 mg/kg/injection, schedule: Q01DX009 (ip), vehicle: suspension in saline) is reported as 102 % of control, the T/C (dose: 100.0 mg/kg/injection, schedule: Q01DX009 (ip), vehicle: suspension in saline) is reported as 94 % of control and the T/C (dose: 200.0 mg/kg/injection, schedule: Q01DX009 (ip), vehicle: suspension in saline) is reported as 86 % of control.
